Measurements taken from patent US10596291B2, “Effective anti-bacteria and anti-viral air treatment device” (KONINKLIJKE PHILIPS N.V., priority 2014, dated 2020).
Read-outs that look alike come from different tables or passages of the source.

Test: Particle generation and ozone consumption by type of terpene in 26.5 m^3 test chamber
Format: physicochemical
Experimental: Some further measurements were done with setups as describe above. Data in relation to particle generation and ozone consumption as function of type of terpene were determined. […] It is clear that e.g. eucalyptol and thymol is most desired amongst these four options.

[1] = terpene approx. 1 mg/m^3, 26.5 m^3 test chamber, initial ozone 100 ppb
[2] = terpene concentration 1 mg/m^3, 26.5 m^3 test chamber, initial ozone 100 ppb

Compound | Particle yield [1] | average O3 consumption [2] [%] | Particle yield | average O3 consumption [%]
Cc1ccc(C(C)C)cc1O [Carvacrol] |  |  | 851.8 10^6/mol | 0
C=CCc1ccc(O)c(OC)c1 [Eugenol] | 18742.9 10^6/mol | 15 |  | 
y-terpinene |  |  | 112499.9 10^6/mol | 19

Now from value to compound, other results behind:

Particle yield [1] | average O3 consumption [2] [%] | Compound | Particle yield | average O3 consumption [%]
779.9 10^6/mol | 2 | CC12CCC(CC1)C(C)(C)O2 [Eucalyptol, Eucalyptol (1,8-cineol)] |  | 
57608.1 10^6/mol | 54 | CC(C)=CCC/C(C)=C/CO [Geraniol] |  | 
94003.4 10^6/mol | 31 | C=C(C)[C@H]1CC=C(C)CC1 [Limonene] |  | 
76911.2 10^6/mol | 44 | C=CC(C)(O)CCC=C(C)C (stereo not shown) [Linalool] |  | 
498.2 10^6/mol | 2 | Cc1ccc(C(C)C)c(O)c1 [Thymol] |  | 
